Reference: patent US10034861B2 (priority 2016, dated 2018)
Read-outs that look alike come from different tables or passages of the source.

Experiments:
Type in all cases: biochemical
[1] = target: PDE1B (Homo sapiens (Human), UniProt Q01064); test: PDE1 inhibition assay (PDE1B); conditions: 15 nM tritium labelled cAMP, 1 hr at room temperature, SPA beads
Source text: (§1) Table 1 lists the IC50 value for inhibition of PDE1 by the compounds of the invention. […] PDE1 assays are described in the Experimental Section.

[2] = target: PDE1A (Homo sapiens (Human), UniProt P54750); test: biochemical
Source text: as §1

[3] = target: PDE1C (Homo sapiens (Human), UniProt Q14123); test: biochemical
Source text: as §1

[4] = 15 nM tritium labelled cAMP, 1 hr at room temperature, SPA beads

PDE1A, sequence (P54750 whole entry): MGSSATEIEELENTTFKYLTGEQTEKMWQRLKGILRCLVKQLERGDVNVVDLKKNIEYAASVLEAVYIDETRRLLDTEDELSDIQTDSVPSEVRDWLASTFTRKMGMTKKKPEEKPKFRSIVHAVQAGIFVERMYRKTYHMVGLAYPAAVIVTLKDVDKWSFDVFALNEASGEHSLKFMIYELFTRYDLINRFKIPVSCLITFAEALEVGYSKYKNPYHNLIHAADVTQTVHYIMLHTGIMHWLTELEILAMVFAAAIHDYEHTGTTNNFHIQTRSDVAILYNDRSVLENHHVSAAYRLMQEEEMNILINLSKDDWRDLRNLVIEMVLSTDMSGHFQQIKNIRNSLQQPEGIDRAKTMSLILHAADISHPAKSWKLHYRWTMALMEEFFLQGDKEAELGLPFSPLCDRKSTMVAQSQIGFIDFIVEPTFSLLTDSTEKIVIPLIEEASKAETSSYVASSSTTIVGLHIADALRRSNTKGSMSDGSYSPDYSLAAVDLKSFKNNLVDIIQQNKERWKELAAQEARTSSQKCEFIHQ
PDE1B, sequence (Q01064 whole entry): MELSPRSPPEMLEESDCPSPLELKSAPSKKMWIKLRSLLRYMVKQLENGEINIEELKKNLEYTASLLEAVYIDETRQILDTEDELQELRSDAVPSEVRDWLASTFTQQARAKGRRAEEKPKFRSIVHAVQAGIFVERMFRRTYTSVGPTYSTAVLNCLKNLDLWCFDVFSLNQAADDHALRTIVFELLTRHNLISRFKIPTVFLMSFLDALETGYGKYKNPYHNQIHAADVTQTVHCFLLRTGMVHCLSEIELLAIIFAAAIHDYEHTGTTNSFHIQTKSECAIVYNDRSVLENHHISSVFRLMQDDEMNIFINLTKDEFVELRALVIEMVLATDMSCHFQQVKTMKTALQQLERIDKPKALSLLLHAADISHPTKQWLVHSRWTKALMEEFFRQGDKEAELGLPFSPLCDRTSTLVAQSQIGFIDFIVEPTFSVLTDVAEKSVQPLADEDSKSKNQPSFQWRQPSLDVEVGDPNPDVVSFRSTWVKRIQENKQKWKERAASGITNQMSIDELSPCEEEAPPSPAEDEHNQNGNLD
PDE1C, sequence (Q14123 whole entry): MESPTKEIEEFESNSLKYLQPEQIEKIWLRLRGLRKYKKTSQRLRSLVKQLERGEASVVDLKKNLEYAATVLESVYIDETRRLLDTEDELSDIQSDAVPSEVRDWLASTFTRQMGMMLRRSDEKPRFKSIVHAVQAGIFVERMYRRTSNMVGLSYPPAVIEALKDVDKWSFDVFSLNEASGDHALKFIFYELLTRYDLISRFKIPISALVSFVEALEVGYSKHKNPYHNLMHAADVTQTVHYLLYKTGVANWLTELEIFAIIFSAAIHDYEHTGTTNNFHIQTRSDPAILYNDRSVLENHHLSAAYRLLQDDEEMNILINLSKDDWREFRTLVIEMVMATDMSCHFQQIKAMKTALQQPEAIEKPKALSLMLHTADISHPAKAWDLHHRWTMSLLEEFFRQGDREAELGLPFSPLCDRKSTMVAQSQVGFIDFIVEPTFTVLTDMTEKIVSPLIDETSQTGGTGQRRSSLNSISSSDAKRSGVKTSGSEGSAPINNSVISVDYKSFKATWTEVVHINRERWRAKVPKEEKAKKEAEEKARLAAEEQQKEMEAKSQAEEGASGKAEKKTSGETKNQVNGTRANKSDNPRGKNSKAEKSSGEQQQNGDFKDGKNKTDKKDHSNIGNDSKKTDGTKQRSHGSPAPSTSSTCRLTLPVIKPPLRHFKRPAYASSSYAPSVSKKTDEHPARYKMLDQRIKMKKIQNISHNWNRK

Compound | IC50 ([1]; read-out: PDE1B, IC50) | IC50 [2, 4] | IC50 [3, 4] | IC50 ([1]; PDE1B, IC50 (nM)) | IC50 [2] | IC50 [3]
CCOc1ncccc1-c1cc(NCc2ccnc(C)c2)c2c(n1)c(C)nn2C(C)C [Example 103, 5-(2-ethoxy-3-pyridyl)-1-isopropyl-3-methyl-N-[(2-methyl-4-pyridyl)methyl]pyrazolo[4,3-b]pyridin-7-amine] | 2.9 nM | 5.4 nM | 17 nM | – | – | –
CCOc1ncccc1-c1cc(NCc2ncc(OC)cn2)c2c(n1)c(C)nn2C(C)C [Example 176, 5-(2-ethoxy-3-pyridyl)-1-isopropyl-N-[(5-methoxypyrimidin-2-yl)methyl]-3-methyl-pyrazolo[4,3-b]pyridin-7-amine] | 12 nM | 81 nM | 93 nM | – | – | –
CCOc1ncccc1-c1cc(NCc2nc[nH]n2)c2c(n1)c(C)nn2C(C)C [Example 98, 5-(2-ethoxy-3-pyridyl)-1-isopropyl-3-methyl-N-(1H-1,2,4-triazol-3-ylmethyl)pyrazolo[4,3-b]pyridin-7-amine] | 0.58 nM | – | 21 nM | – | – | –
CCOc1ncccc1-c1cc(CNc2cncc(OC)c2)c2c(n1)c(C)nn2C(C)C [Example 157, N-[[5-(2-ethoxy-3-pyridyl)-1-isopropyl-3-methyl-pyrazolo[4,3-b]pyridin-7-yl]methyl]-5-methoxy-pyridin-3-amine] | 14 nM | 34 nM | 77 nM | – | – | –
Cc1nn(C(C)C)c2c(NCc3cnn(C)c3)cc(N3CCCC3=O)nc12 [Example 154, 1-[1-isopropyl-3-methyl-7-[(1-methylpyrazol-4-yl)methylamino]pyrazolo[4,3-b]pyridin-5-yl]pyrrolidin-2-one] | 3.6 nM | 26 nM | 49 nM | – | – | –
Cc1nn(C(C)C)c2c(NCc3cnn(C)c3)cc(-c3ncco3)nc12 [Example 168, 1-isopropyl-3-methyl-N-[(1-methylpyrazol-4-yl)methyl]-5-oxazol-2-yl-pyrazolo[4,3-b]pyridin-7-amine] | 2.6 nM | 14 nM | 36 nM | – | – | –
COc1ncccc1CNc1cc(-c2ccc[nH]c2=O)nc2c(C)nn(C(C)C)c12 [Example 171, 3-[1-isopropyl-7-[(2-methoxy-3-pyridyl)methylamino]-3-methyl-pyrazolo[4,3-b]pyridin-5-yl]-1H-pyridin-2-one] | 47 nM | 290 nM | 420 nM | – | – | –
Cc1nn(C(C)C)c2c(NCc3cnn(C)c3)cc(N3CCOC3=O)nc12 [Example 151, 3-[1-isopropyl-3-methyl-7-[(1-methylpyrazol-4-yl)methylamino]pyrazolo[4,3-b]pyridin-5-yl]oxazolidin-2-one] | 4.7 nM | 10 nM | 12 nM | – | – | –
CCOc1ncccc1-c1cc(NCc2c[nH]c(C)n2)c2c(n1)c(C)nn2C(C)C [Example 46, 5-(2-ethoxypyridin-3-yl)-1-isopropyl-3-methyl-N-((2-methyl-1H-imidazol-4-yl)methyl)-1H-pyrazolo[4,3-b]pyridin-7-amine] | 0.42 nM | 5 nM | 9.7 nM | – | – | –
CCOc1ncccc1-c1cc(NCc2ccc(C(F)F)nc2)c2c(n1)c(C)nn2C(C)C [Example 117, N-[[6-(difluoromethyl)-3-pyridyl]methyl]-5-(2-ethoxy-3-pyridyl)-1-isopropyl-3-methyl-pyrazolo[4,3-b]pyridin-7-amine] | 2.3 nM | 18 nM | 26 nM | – | – | –
CCOc1ncccc1-c1cc(NCc2nn[nH]n2)c2c(n1)c(C)nn2C(C)C [Example 99, 5-(2-ethoxy-3-pyridyl)-1-isopropyl-3-methyl-N-(2H-tetrazol-5-ylmethyl)pyrazolo[4,3-b]pyridin-7-amine] | 0.31 nM | 0.73 nM | 3.8 nM | – | – | –
CCOc1ncccc1-c1cc(NCc2cnn(C)c2)c2c(n1)c(C)nn2C1COC1 [Example 27, 5-(2-ethoxy-3-pyridyl)-3-methyl-N-[(1-methylpyrazol-4-yl)methyl]-1-(oxetan-3-yl)pyrazolo[4,3-b]pyridin-7-amine] | 6.6 nM | 94 nM | 170 nM | – | – | –
CCOc1ncccc1-c1cc(NCc2cnn(C)c2)c2c(n1)c(C)nn2C [Example 28, 5-(2-ethoxy-3-pyridyl)-1,3-dimethyl-N-[(1-methylpyrazol-4-yl)methyl]pyrazolo[4,3-b]pyridin-7-amine] | 85 nM | 550 nM | 1900 nM | – | – | –
CCOc1ncccc1-c1cc(NCc2cc(CF)no2)c2c(n1)c(C)nn2C(C)C [Example 167, 5-(2-ethoxy-3-pyridyl)-N-[[3-(fluoromethyl)isoxazol-5-yl]methyl]-1-isopropyl-3-methyl-pyrazolo[4,3-b]pyridin-7-amine] | 1 nM | 11 nM | 33 nM | – | – | –
[2H]C([2H])([2H])COc1ncccc1-c1cc(NCc2cccnc2OC)c2c(n1)c(C)nn2C(C)C [Example 182, 5-(2-(ethoxy-2,2,2-d3)pyridin-3-yl)-1-isopropyl-N-((2-methoxypyridin-3-yl)methyl)-3-methyl-1H-pyrazolo[4,3-b]pyridin-7-amine] | – | – | – | 1.1 nM | 24 nM | 61 nM
CCOc1ncccc1-c1cc(NCc2ncn(C)n2)c2c(cnn2C(C)CC)n1 (single isomer, unassigned) [Example 141, 5-(2-ethoxy-3-pyridyl)-1-[1-methylpropyl]-N-[(1-methyl-1,2,4-triazol-3-yl)methyl]pyrazolo[4,3-b]pyridin-7-amine] | – | 44 nM | – | 2.2 nM | – | 76 nM
CCOc1ncccc1-c1cc(NCc2ncc(F)cn2)c2c(n1)c(C)nn2C(C)C [Example 83, 5-(2-ethoxy-3-pyridyl)-N-[(5-fluoropyrimidin-2-yl)methyl]-1-isopropyl-3-methyl-pyrazolo[4,3-b]pyridin-7-amine] | 1.2 nM | 17 nM | 38 nM | – | – | –
Cc1nn(C(C)C)c2c(NCc3cnn(C)c3)cc(N3CCN(C(C)(C)C)C3=O)nc12 [Example 153, 1-tert-butyl-3-[1-isopropyl-3-methyl-7-[(1-methylpyrazol-4-yl)methylamino]pyrazolo[4,3-b]pyridin-5-yl]imidazolidin-2-one] | 76 nM | 130 nM | 270 nM | – | – | –
CCOc1ncccc1-c1cc(SCc2cnn(C)c2)c2c(n1)c(C)nn2C(C)C [Example 164, 5-(2-ethoxy-3-pyridyl)-1-isopropyl-3-methyl-7-[(1-methylpyrazol-4-yl)methylsulfanyl]pyrazolo[4,3-b]pyridine] | – | – | 25 nM | 1.6 nM | 6.8 nM | –
CCOc1ncccc1CNc1cc(-c2cccnc2OCC)nc2c(C)nn(C(C)C)c12 [Example 191, 5-(2-ethoxy-3-pyridyl)-N-[(2-ethoxy-3-pyridyl)methyl]-1-isopropyl-3-methyl-pyrazolo[4,3-b]pyridin-7-amine] | 10 nM | 160 nM | 400 nM | – | – | –
CCOc1ncccc1-c1cc(NCc2cnn(C(F)F)c2)c2c(n1)c(C)nn2C(C)C [Example 165, N-[[1-(difluoromethyl)pyrazol-4-yl]methyl]-5-(2-ethoxy-3-pyridyl)-1-isopropyl-3-methyl-pyrazolo[4,3-b]pyridin-7-amine] | – | – | – | 5.9 nM | 73 nM | –
CCOc1ncccc1-c1cc(NCc2cc[nH]n2)c2c(n1)c(C)nn2C(C)CC (single isomer, unassigned) [Example 119, 5-(2-ethoxy-3-pyridyl)-3-methyl-1-[1-methylpropyl]-N-(1H-pyrazol-3-ylmethyl)pyrazolo[4,3-b]pyridin-7-amine] | – | – | – | 0.56 nM | – | 29 nM
Cc1sccc1-c1cc(NCc2cnn(C)c2)c2c(n1)c(C)nn2C(C)C [Example 65, 1-isopropyl-3-methyl-N-[(1-methylpyrazol-4-yl)methyl]-5-(2-methyl-3-thienyl)pyrazolo[4,3-b]pyridin-7-amine] | 1.2 nM | 7.9 nM | – | – | – | –
CCOc1ncccc1-c1cc(NCc2nc(C)co2)c2c(n1)c(C)nn2C(C)C [Example 50, 5-(2-ethoxypyridin-3-yl)-1-isopropyl-3-methyl-N-((4-methyloxazol-2-yl)methyl)-1H-pyrazolo[4,3-b]pyridin-7-amine 2,2,2-trifluoroacetate] | 0.5 nM | 9 nM | – | – | – | –
CCOc1ncccc1-c1cc(NCc2nc(C)cs2)c2c(n1)c(C)nn2C(C)C [Example 29, 5-(2-ethoxypyridin-3-yl)-1-isopropyl-3-methyl-N-((4-methylthiazol-2-yl)methyl)-1H-pyrazolo[4,3-b]pyridin-7-amine] | 1.1 nM | – | – | – | – | –
Cc1nn(C(C)C)c2c(NCc3cnn(C)c3)cc(-c3cccn(C)c3=O)nc12 [Example 49, 3-(1-isopropyl-3-methyl-7-(((1-methyl-1H-pyrazol-4-yl)methyl)amino)-1H-pyrazolo[4,3-b]pyridin-5-yl)-1-methylpyridin-2(1H)-one] | 20 nM | – | 420 nM | – | – | –
CCOc1ncccc1-c1cc(NCc2ccc(=O)n(C)c2)c2c(n1)c(C)nn2C(C)C [Example 45] | 0.62 nM | – | – | – | – | –
CCOc1ncccc1-c1cc(NCc2cncc(OC)c2)c2c(n1)c(C)nn2C(C)CC (single isomer, unassigned; enantiomer 2) [Example 125, 5-(2-ethoxy-3-pyridyl)-N-[(5-methoxy-3-pyridyl)methyl]-3-methyl-1-[1-methylpropyl]pyrazolo[4,3-b]pyridin-7-amine, enantiomer 2] | – | – | – | 0.32 nM | – | –
CCOc1ncccc1-c1cc(NCc2nnn(C)n2)c2c(n1)c(C)nn2C(C)CC (single isomer, unassigned) [Example 127, 5-(2-ethoxy-3-pyridyl)-3-methyl-1-[1-methylpropyl]-N-[(2-methyltetrazol-5-yl)methyl]pyrazolo[4,3-b]pyridin-7-amine] | – | – | – | 0.31 nM | – | –
